Source: US6008220A, “Aromatic keto-acids and their derivatives as inhibitors of matrix metalloproteinases” (priority 1998, dated 1999)
Structures can show the parent of a compound that is named as a salt. Where two headings read alike, the source gives them in different places.

Legend:
[1] = target: GCD (recombinant gelatinase A catalytic domain); test: Inhibition of recombinant gelatinase A catalytic domain (GCD), thiopeptolide substrate Ac-Pro-Leu-Gly-thioester-Leu-Leu-Gly-OEt; format: biochemical
Procedure: Experiments were carried out with the catalytic domains of the proteinases.

[2] = target: SCD (stromelysin-1 catalytic domain) (Homo sapiens, UniProt P08254); test: Inhibition of stromelysin-1 catalytic domain (SCD), thiopeptolide substrate Ac-Pro-Leu-Gly-thioester-Leu-Leu-Gly-OEt; format: biochemical
Procedure: Experiments were carried out with the catalytic domains of the proteinases. […] IC50 values were determined using a thiopeptolide substrate, Ac-Pro-Leu-Gly-thioester-Leu-Leu-Gly-OEt (Ye Q.-Z., Johnson L. L., Hupe D. J., and Baragi V., "Purification and Characterization of the Human Stromelysin Catalytic Domain Expressed in Escherichia coli", Biochemistry, 1992;31:11231-11235).

[3] = tested on: human ovarian carcinoma xenografts; details: mice bearing human ovarian carcinoma xenografts; cited from earlier work
pig articular cartilage = details: cited from earlier work
bovine nasal cartilage = details: cited from earlier work
[4] = tested on: experimental allergic encephalomyelitis (EAE); details: dose dependent; cited from earlier work

Sequence of SCD (stromelysin-1 catalytic domain) (P08254 100-272 limits assumed): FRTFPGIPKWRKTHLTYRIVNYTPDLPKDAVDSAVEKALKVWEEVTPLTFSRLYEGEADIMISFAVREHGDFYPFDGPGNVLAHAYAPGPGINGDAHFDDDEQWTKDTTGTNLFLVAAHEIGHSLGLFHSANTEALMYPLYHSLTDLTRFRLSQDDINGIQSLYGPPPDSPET

In the case of `O=C(O)CCC(=NO)c1ccc(N2CCC(c3ccccc3)CC2)cc1` [Example 4, E/Z-4-Hydroxyimino-4-[4-(4-phenyl-piperidin-1-yl)-phenyl]-butyric acid], the IC50 [1] is reported as 0.15 µM and the IC50 [2] is reported as 0.02 µM.
Molecule `O=C(O)CCC(=NOCc1ccccc1)c1ccc(N2CCC(c3ccccc3)CC2)cc1` [Example 5, E/Z-4-Benzyloxyimino-4-[4-(4-phenyl-piperidin-1-yl)-phenyl]-butyric acid] has an IC50 [1] of 6.3 µM and an IC50 [2] of 2.9 µM.
Work on `O=C(O)CCC(=O)c1ccc(N2CCC(c3ccccc3)CC2)cc1` [Example 1, 4-Oxo-4-[4-(4-phenyl-piperidin-1-yl)-phenyl]-butyric acid] yielded an IC50 [1] of 1.3 µM.
In the case of `O=C(CCC(=O)c1ccc(N2CCC(c3ccccc3)CC2)cc1)NO` [Example 3, N-Hydroxy-4-oxo-4-[4-(4-phenyl-piperidin-1-yl)-phenyl]-butyramide], the IC50 [1] is reported as 0.04 µM.
For `CNC(=O)[C@H](Cc1ccccc1)NC(=O)[C@H](CC(C)C)[C@H](CSc1cccs1)C(=O)NO` [BB-94], the survival [3] is given as “prolonged the survival” and the tumor burden [3] is given as “decreased the tumor burden”.
`CC(CC(=O)O)CC(=O)c1ccc(N2CCC(c3ccccc3)CC2)cc1` (racemic) [Example 7, (±)3-Methyl-5-oxo-5-[4-(4-phenyl-piperidin-1-yl)-phenyl]-pentanoic acid] gave an IC50 [1] of 14 µM and an IC50 [2] of 0.4 µM.
For “TIMP-1: natural endogenous inhibitors of MMPs (TIMPs)”, the “formation of collagen fragments” value (pig articular cartilage) is listed as “prevented the formation of collagen fragments”, the “formation of proteoglycan fragments” value (pig articular cartilage) is listed as “not proteoglycan fragments” and the “formation of collagen fragments” value (bovine nasal cartilage) is listed as “prevented the formation of collagen fragments”. The “formation of proteoglycan fragments” value (bovine nasal cartilage) was “not proteoglycan fragments”.
Molecule `O=C(O)CCC(=O)c1ccc(N2CCC(c3ccccc3)CC2)cc1` [potassium salt] has an IC50 ([1]; potassium salt) of 0.56 µM and an IC50 [2] of 0.08 µM.
For `O=C(O)CCC(=O)c1ccc(N2CCN(c3ccccc3)CC2)cc1` [Example 6, 4-Oxo-4-[4-(4-phenyl-piperazin-1-yl)-phenyl]-butyric acid], the IC50 [1] was 1.6 µM.
For `CNC(=O)[C@H](Cc1c[nH]c2ccccc12)NC(=O)[C@@H](CC(=O)NO)CC(C)C` [GM6001], the “development or clinical expression of EAE” value [4] is given as “suppressed the development or reversed the clinical expression”.
